This assay deals with T1, autotaxin (ATX) (Homo sapiens, UniProt Q13822).
T1 construct: conditioned medium from the human melanoma cell line, MDA-MB-4355, which endogenously expresses autotaxin; host or cells: MDA-MB-435S human melanoma cells; serum-free conditioned medium, concentrated 20-fold
Description: Native Autotaxin Choline Release Assay. The format is biochemical. Particulars: autotaxin in conditioned medium from human melanoma cell line; choline released from LPC; read-out: MDA-MB-435S Assay IC50. How it is done: ATX activity is determined by measuring the amount of choline realeased from the substrate, lyosphophatidylcholine (LPC). […] After reaching confluency, the cells are washed twice with phosphate-buffered saline (PBS) then cultured for 48 hours in phenol-red free, serum-free DMEM containing sodium pyruvate. […] 100 μl of a color mix which contains 4.5 mM 4-aminoantipyrine, 2.7 mM N-ethyl-N-(2-hydroxy-3-sulfopropyl)-m-toluidine, 21 units/ml horseradish peroxidase and 3 units/ml choline oxidase in 50 mM Tris, pH 8, 4.5 mM MgCl2 is added and the incubation continued at 37° C. for 10 minutes before reading the absorbance at 555 nm. The concentration of released choline in the sample is determined from a choline standard curve and is equal to the concentration of LPA produced.

By pIC50 is commonly meant the negative decadic logarithm of the IC50, by convention in mol/L.

pIC50: −log10 of the molar value.

Take `CCCn1cc(-n2c(C)c(Sc3cccc(C(=O)O)c3F)c3ccc(Cl)c(F)c32)cn1` [Compound 4-4, 3-[6-Chloro-7-fluoro-2-methyl-1-(1-propyl-1H-pyrazol-4-yl)-1H-indol-3-ylsulfanyl]-2-fluoro-benzoic acid]: the pIC50 is more than 6.52.

`Cc1c(Oc2cccc(Cc3nn[nH]n3)c2)c2ccc(Cl)cc2n1Cc1ccccc1` [Compound 2-6, 1-Benzyl-6-chloro-2-methyl-3-[3-(2H-tetrazol-5-ylmethyl)-phenoxy]-1H-indole]: the pIC50 is less than 6.00. For `Cc1[nH]c2cc(Cl)ccc2c1Sc1cccc(B(O)O)c1` [Compound 2-1, 3-(6-Chloro-2-methyl-1H-indol-3-ylsulfanyl)-phenylboronic acid], the pIC50 was less than 6.00.

As to `Cc1cncc(-n2c(C)c(Sc3cccc(C(=O)O)c3F)c3ccc(Cl)cc32)c1` [Compound 1-66, 3-[6-Chloro-2-methyl-1-(5-methyl-pyridin-3-yl)-1H-indol-3-ylsulfanyl]-2-fluoro-benzoic acid], the pIC50 was more than 6.52.

With `CCn1cc(-n2c(C)c(Sc3cccc(C(=O)NS(=O)(=O)C4CC4)c3)c3ccc(Cl)c(F)c32)cn1` [Compound 3-51, cyclopropanesulfonic acid 3-[6-chloro-1-(1-ethyl-1H-pyrazol-4-yl)-7-fluoro-2-methyl-1H-indol-3-ylsulfanyl]-benzoylamide], the pIC50 was more than 6.52. As to `CCn1cc(-n2c(C)c(Sc3ccc(F)c(C(=O)O)c3)c3ccc(Cl)cc32)cn1` [Compound 1-76, 5-[6-chloro-1-(1-ethyl-1H-pyrazol-4-yl)-2-methyl-1H-indol-3-ylsulfanyl]-2-fluoro-benzoic acid], the pIC50 was more than 6.52. Regarding `CCn1cc(-n2c(C)c(Sc3cc(Br)cc(C(=O)O)c3)c3ccc(Cl)cc32)cn1` [Compound 1-51, 3-Bromo-5-[6-chloro-1-(1-ethyl-1H-pyrazol-4-yl)-2-methyl-1H-indol-3-ylsulfanyl]-benzoic acid], the pIC50 was less than 6.00. As for `CCn1cc(-n2c(C)c(Sc3cccc(C(=O)O)c3F)c3ccc(Cl)c(F)c32)cn1` [Compound 4-3, 3-[6-Chloro-1-(1-ethyl-1H-pyrazol-4-yl)-7-fluoro-2-methyl-1H-indol-3-ylsulfanyl]-2-fluoro-benzoic acid], the figure is more than 6.52; as for `Cc1c(Sc2cccc(C(=O)O)c2)c2ccc(Cl)c(F)c2n1-c1cnn(-c2cccc(Cl)c2)c1` [Compound 3-33, 3-{6-Chloro-1-[1-(3-chloro-phenyl)-1H-pyrazol-4-yl]-7-fluoro-2-methyl-1H-indol-3-ylsulfanyl}-benzoic acid], more than 6.52. With `Cc1c(Oc2cccc(CC(=O)O)c2)c2ccc(Cl)cc2n1Cc1ccccc1` [Compound 1-16, [3-(1-Benzyl-6-chloro-2-methyl-1H-indol-3-yloxy)-phenyl]-acetic acid], the pIC50 is less than 6.00. For the molecule `CCCn1cc(-n2c(C)c(Sc3cccc(CC(=O)O)c3)c3ccc(Cl)cc32)cn1` [Compound 1-70, {3-[6-Chloro-1-(1-propyl-1H-pyrazol-4-yl)-2-methyl-1H-indol-3-ylsulfanyl]-phenyl}-acetic acid], the pIC50 is more than 6.52. Consider `CCn1cc(-n2c(C)c(Sc3cccc(C(=O)O)c3)c3cc(F)c(Cl)cc32)cn1` [Compound 3-26, 3-[6-Chloro-1-(1-ethyl-1H-pyrazol-4-yl)-5-fluoro-2-methyl-1H-indol-3-ylsulfanyl]-benzoic acid], for which the pIC50 is more than 6.52. Consider `O=C(O)c1cccc(Sc2cn(Cc3ccccc3)c3cc(Cl)ccc23)c1` [Compound 3-17, 3-(1-Benzyl-6-chloro-1H-indol-3-ylsulfanyl)-benzoic acid], for which the pIC50 is 6.00 to 6.52. In the case of `CCn1cc(-n2c(C)c(Sc3cccc(C(=O)O)c3)c3ccc(Cl)c(F)c32)cn1` [Compound 3-16, 3-[6-Chloro-1-(1-ethyl-1H-pyrazol-4-yl)-7-fluoro-2-methyl-1H-indol-3-ylsulfanyl]-benzoic acid], the negative-log IC50 (pIC50) was more than 6.52.
